{"source": "paper PMC10177727", "about": "(Clinical Drug Investigation, 2023)", "key": {"[1]": {"experiment": "Safety and tolerability: treatment-emergent adverse events", "type": "in vivo, healthy Japanese adult participants"}, "[2]": {"target": "CYP3A (Homo sapiens, UniProt P08684)", "sequence (P08684 2-503)": "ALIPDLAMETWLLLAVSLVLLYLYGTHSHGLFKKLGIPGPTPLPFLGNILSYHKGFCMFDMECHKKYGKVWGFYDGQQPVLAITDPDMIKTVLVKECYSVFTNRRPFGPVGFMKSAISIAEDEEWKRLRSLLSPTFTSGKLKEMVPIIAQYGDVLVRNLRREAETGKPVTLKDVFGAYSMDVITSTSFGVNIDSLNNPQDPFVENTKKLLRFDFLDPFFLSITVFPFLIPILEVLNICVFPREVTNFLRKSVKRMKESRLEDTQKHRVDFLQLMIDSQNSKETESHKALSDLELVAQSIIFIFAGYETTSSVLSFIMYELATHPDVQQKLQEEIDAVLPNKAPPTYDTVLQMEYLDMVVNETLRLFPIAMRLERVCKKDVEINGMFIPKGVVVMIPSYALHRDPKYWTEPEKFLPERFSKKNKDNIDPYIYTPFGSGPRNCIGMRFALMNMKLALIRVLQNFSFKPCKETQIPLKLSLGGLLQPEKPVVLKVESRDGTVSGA", "settings": "pre-clinical in vitro findings"}, "[3]": {"settings": "ensitrelvir; cited from earlier work"}, "[4]": {"settings": "Ensitrelvir 375/125 mg + midazolam, N = 14"}, "[5]": {"settings": "Ensitrelvir 375/125 mg + midazolam, N = 14, listed as ensitrelvir"}, "[6]": {"settings": "Ensitrelvir 750/250 mg + dexamethasone, N = 14"}, "[7]": {"settings": "Ensitrelvir 750/250 mg + dexamethasone, N = 14, listed as ensitrelvir"}, "[8]": {"settings": "Ensitrelvir 750/250 mg + prednisolone, N = 14"}}}
{"smiles": "Cn1cnc(Cn2c(=O)[nH]/c(=N\\c3cc4cn(C)nc4cc3Cl)n(Cc3cc(F)c(F)cc3F)c2=O)n1", "note": "[Ensitrelvir, Ensitrelvir fumaric acid]", "values": [{"measurement": "Arthropod sting, Events", "setting": "[1]; [4]", "value": 1}, {"measurement": "Arthropod sting, N (%)", "setting": "[1]; [4]", "value": "1 (7.1)"}, {"measurement": "Blood triglycerides increased, Events", "setting": "[1]; [4]", "value": 1}, {"measurement": "Blood triglycerides increased, N (%)", "setting": "[1]; [4]", "value": "1 (7.1)"}, {"measurement": "Blood triglycerides increased, events Related to ensitrelvir", "setting": "[1]; [4]", "value": 1}, {"measurement": "Diarrhea, Events", "setting": "[1]; [4]", "value": 1}, {"measurement": "Diarrhea, N (%)", "setting": "[1]; [4]", "value": "1 (7.1)"}, {"measurement": "Gastrointestinal disorders, Events", "setting": "[1]; [4]", "value": 1}, {"measurement": "Gastrointestinal disorders, N (%)", "setting": "[1]; [4]", "value": "1 (7.1)"}, {"measurement": "High-density lipoprotein decreased, Events", "setting": "[1]; [4]", "value": 8}, {"measurement": "High-density lipoprotein decreased, N (%)", "setting": "[1]; [4]", "value": "8 (57.1)"}, {"measurement": "High-density lipoprotein decreased, events Related to ensitrelvir", "setting": "[1]; [4]", "value": 8}, {"measurement": "Injury, poisoning and procedural complications, Events", "setting": "[1]; [4]", "value": 1}, {"measurement": "Injury, poisoning and procedural complications, N (%)", "setting": "[1]; [4]", "value": "1 (7.1)"}, {"measurement": "Investigations, Events", "setting": "[1]; [4]", "value": 9}, {"measurement": "Investigations, N (%)", "setting": "[1]; [4]", "value": "8 (57.1)"}, {"measurement": "Investigations, events Related to ensitrelvir", "setting": "[1]; [4]", "value": 9}, {"measurement": "Nervous system disorders, Events", "setting": "[1]; [4]", "value": 10}, {"measurement": "Nervous system disorders, N (%)", "setting": "[1]; [4]", "value": "9 (64.3)"}, {"measurement": "Nervous system disorders, events Related to ensitrelvir", "setting": "[1]; [4]", "value": 2}, {"measurement": "Participants with any TEAE, Events", "setting": "[1]; [4]", "value": 21}, {"measurement": "Participants with any TEAE, N (%)", "setting": "[1]; [4]", "value": "11 (78.6)"}, {"measurement": "Participants with any TEAE, events Related to ensitrelvir", "setting": "[1]; [4]", "value": 11}, {"measurement": "Somnolence, Events", "setting": "[1]; [4]", "value": 10}, {"measurement": "Somnolence, N (%)", "setting": "[1]; [4]", "value": "9 (64.3)"}, {"measurement": "Somnolence, events Related to ensitrelvir", "setting": "[1]; [4]", "value": 2}, {"measurement": "Arthropod sting, N (%)", "setting": "[1]; [5]", "value": 1}, {"measurement": "Blood triglycerides increased, N (%)", "setting": "[1]; [5]", "value": 1}, {"measurement": "Diarrhea, N (%)", "setting": "[1]; [5]", "value": 1}, {"measurement": "High-density lipoprotein decreased, N (%)", "setting": "[1]; [5]", "value": 8}, {"measurement": "Participants with any TEAE, N (%)", "setting": "[1]; [5]", "value": 11}, {"measurement": "Somnolence, N (%)", "setting": "[1]; [5]", "value": 9}, {"measurement": "Atrioventricular block, Events", "setting": "[1]; [6]", "value": 1}, {"measurement": "Atrioventricular block, N (%)", "setting": "[1]; [6]", "value": "1 (7.1)"}, {"measurement": "Blood triglycerides increased, Events", "setting": "[1]; [6]", "value": 4}, {"measurement": "Blood triglycerides increased, N (%)", "setting": "[1]; [6]", "value": "4 (28.6)"}, {"measurement": "Blood triglycerides increased, events Related to ensitrelvir", "setting": "[1]; [6]", "value": 3}, {"measurement": "Cardiac disorders, Events", "setting": "[1]; [6]", "value": 1}, {"measurement": "Cardiac disorders, N (%)", "setting": "[1]; [6]", "value": "1 (7.1)"}, {"measurement": "Dizziness, Events", "setting": "[1]; [6]", "value": 1}, {"measurement": "Dizziness, N (%)", "setting": "[1]; [6]", "value": "1 (7.1)"}, {"measurement": "Dizziness, events Related to ensitrelvir", "setting": "[1]; [6]", "value": 1}, {"measurement": "Headache, Events", "setting": "[1]; [6]", "value": 1}, {"measurement": "Headache, N (%)", "setting": "[1]; [6]", "value": "1 (7.1)"}, {"measurement": "Headache, events Related to ensitrelvir", "setting": "[1]; [6]", "value": 1}, {"measurement": "High-density lipoprotein decreased, Events", "setting": "[1]; [6]", "value": 5}, {"measurement": "High-density lipoprotein decreased, N (%)", "setting": "[1]; [6]", "value": "5 (35.7)"}, {"measurement": "High-density lipoprotein decreased, events Related to ensitrelvir", "setting": "[1]; [6]", "value": 5}, {"measurement": "Investigations, Events", "setting": "[1]; [6]", "value": 9}, {"measurement": "Investigations, N (%)", "setting": "[1]; [6]", "value": "7 (50.0)"}, {"measurement": "Investigations, events Related to ensitrelvir", "setting": "[1]; [6]", "value": 8}, {"measurement": "Nervous system disorders, Events", "setting": "[1]; [6]", "value": 2}, {"measurement": "Nervous system disorders, N (%)", "setting": "[1]; [6]", "value": "1 (7.1)"}, {"measurement": "Nervous system disorders, events Related to ensitrelvir", "setting": "[1]; [6]", "value": 2}, {"measurement": "Papule, Events", "setting": "[1]; [6]", "value": 1}, {"measurement": "Papule, N (%)", "setting": "[1]; [6]", "value": "1 (7.1)"}, {"measurement": "Papule, events Related to ensitrelvir", "setting": "[1]; [6]", "value": 1}, {"measurement": "Participants with any TEAE, Events", "setting": "[1]; [6]", "value": 13}, {"measurement": "Participants with any TEAE, N (%)", "setting": "[1]; [6]", "value": "9 (64.3)"}, {"measurement": "Participants with any TEAE, events Related to ensitrelvir", "setting": "[1]; [6]", "value": 11}, {"measurement": "Skin and subcutaneous tissue disorders, Events", "setting": "[1]; [6]", "value": 1}, {"measurement": "Skin and subcutaneous tissue disorders, N (%)", "setting": "[1]; [6]", "value": "1 (7.1)"}, {"measurement": "Skin and subcutaneous tissue disorders, events Related to ensitrelvir", "setting": "[1]; [6]", "value": 1}, {"measurement": "Atrioventricular block, N (%)", "setting": "[1]; [7]", "value": 1}, {"measurement": "Blood triglycerides increased, N (%)", "setting": "[1]; [7]", "value": 4}, {"measurement": "Dizziness, N (%)", "setting": "[1]; [7]", "value": 1}, {"measurement": "Headache, N (%)", "setting": "[1]; [7]", "value": 1}, {"measurement": "Papule, N (%)", "setting": "[1]; [7]", "value": 1}, {"measurement": "Participants with any TEAE, N (%)", "setting": "[1]; [7]", "value": 9}, {"measurement": "Atrioventricular block, Events", "setting": "[1]; [8]", "value": 0}, {"measurement": "Atrioventricular block, N (%)", "setting": "[1]; [8]", "value": 0}, {"measurement": "Atrioventricular block, events Related to ensitrelvir", "setting": "[1]; [8]", "value": 0}, {"measurement": "Blood triglycerides increased, Events", "setting": "[1]; [8]", "value": 0}, {"measurement": "Blood triglycerides increased, N (%)", "setting": "[1]; [8]", "value": 0}, {"measurement": "Blood triglycerides increased, events Related to ensitrelvir", "setting": "[1]; [8]", "value": 0}, {"measurement": "Cardiac disorders, Events", "setting": "[1]; [8]", "value": 0}, {"measurement": "Cardiac disorders, N (%)", "setting": "[1]; [8]", "value": 0}, {"measurement": "Cardiac disorders, events Related to ensitrelvir", "setting": "[1]; [8]", "value": 0}, {"measurement": "Dizziness, Events", "setting": "[1]; [8]", "value": 0}, {"measurement": "Dizziness, N (%)", "setting": "[1]; [8]", "value": 0}, {"measurement": "Dizziness, events Related to ensitrelvir", "setting": "[1]; [8]", "value": 0}, {"measurement": "Headache, Events", "setting": "[1]; [8]", "value": 0}, {"measurement": "Headache, N (%)", "setting": "[1]; [8]", "value": 0}, {"measurement": "Headache, events Related to ensitrelvir", "setting": "[1]; [8]", "value": 0}, {"measurement": "High-density lipoprotein decreased, Events", "setting": "[1]; [8]", "value": 14}, {"measurement": "High-density lipoprotein decreased, N (%)", "setting": "[1]; [8]", "value": "14 (100.0)"}, {"measurement": "High-density lipoprotein decreased, events Related to ensitrelvir", "setting": "[1]; [8]", "value": 14}, {"measurement": "Investigations, Events", "setting": "[1]; [8]", "value": 14}, {"measurement": "Investigations, N (%)", "setting": "[1]; [8]", "value": "14 (100.0)"}, {"measurement": "Investigations, events Related to ensitrelvir", "setting": "[1]; [8]", "value": 14}, {"measurement": "Nervous system disorders, Events", "setting": "[1]; [8]", "value": 0}, {"measurement": "Nervous system disorders, N (%)", "setting": "[1]; [8]", "value": 0}, {"measurement": "Nervous system disorders, events Related to ensitrelvir", "setting": "[1]; [8]", "value": 0}, {"measurement": "Papule, Events", "setting": "[1]; [8]", "value": 0}, {"measurement": "Papule, N (%)", "setting": "[1]; [8]", "value": 0}, {"measurement": "Papule, events Related to ensitrelvir", "setting": "[1]; [8]", "value": 0}, {"measurement": "Participants with any TEAE, Events", "setting": "[1]; [8]", "value": 14}, {"measurement": "Participants with any TEAE, N (%)", "setting": "[1]; [8]", "value": "14 (100.0)"}, {"measurement": "Participants with any TEAE, events Related to ensitrelvir", "setting": "[1]; [8]", "value": 14}, {"measurement": "Skin and subcutaneous tissue disorders, Events", "setting": "[1]; [8]", "value": 0}, {"measurement": "Skin and subcutaneous tissue disorders, N (%)", "setting": "[1]; [8]", "value": 0}, {"measurement": "Skin and subcutaneous tissue disorders, events Related to ensitrelvir", "setting": "[1]; [8]", "value": 0}, {"measurement": "Participants with any TEAE, N (%)", "setting": "[1]; Ensitrelvir 750/250 mg + prednisolone, N = 14, listed as ensitrelvir", "value": 14}, {"measurement": "serious TEAEs", "setting": "[1]; all cohorts", "value": "no serious TEAEs"}, {"measurement": "tolerability", "setting": "[1]; multiple-dose ensitrelvir with CYP3A substrates", "value": "well tolerated"}, {"measurement": "reversible inhibitory effect on CYP3A4", "setting": "[2]", "value": "no reversible inhibitory effect"}, {"measurement": "time-dependent inhibition of CYP3A", "setting": "[2]", "value": "time-dependent NADPH-mediated inhibition"}, {"measurement": "t1/2,z", "setting": "[3]", "value": "42.2 to 48.1", "unit": "h"}]}
